This assay concerns digitonin-permeabilized bovine adrenochromaffin cells. The format is cell-based.

For botulinum toxin type A, the “inhibition of Ca2+-stimulated catecholamine release” value is reported as “inhibition”.

The record behind these values is patent US6787517B1 (priority 2000, dated 2004).
